Results reported in a melting point compilation (Tetko et al.; mined from patent text by program, amines drawn as free bases though some values may be those of a salt).

| SMILES | melting point |
| --- | --- |
| CCCCC(=O)c1c(CN2CCOCC2)nc2cc(OC)c(OC)cc2c1-c1ccc(OC)c(OC)c1 | 137 to 138 °C |
| COC1=CC23CCN(C)C(Cc4ccc(OC)c(O)c42)C3=CC1C (centres undefined) | 97 to 100 °C |
| COC(=O)C1(C(C)C)Oc2c(OC)cccc2C1=O (centres undefined) | 87 to 88 °C |
| CC(C)(Oc1ccc(N)cc1)C(=O)O | 214 to 216 °C |
| Cc1c(O)cc2c(c1Cl)CCC2(C)C | 109 to 110 °C |
| CSc1sc(-c2nccs2)c2c1-c1oncc1CC2 | 165 to 168 °C |
| O=c1[nH]c2cc3ccc(C(F)(F)F)cc3nc2[nH]1 | > 250 °C |
| CN(C)Cc1nnc2n1-c1ccccc1C(c1ccccc1)=NC2 | 181 to 182 °C |
| CC1(C)CC(=O)C(C(=O)Nc2cccc(C(F)(F)F)c2)C(=O)O1 (centres undefined) | 150 °C |
| Nc1c(F)c(N2CCC(C(N)c3ccco3)C2)c(F)c2c1c(=O)c(C(=O)O)cn2C1CC1F (centres undefined) | 188 to 189 °C |
| Cn1cc(O)c(=O)c2ccccc21 | 235 to 240 °C |
| COc1cccc(OC)c1Cl | 69 to 71 °C |
| CS(=O)(=O)Oc1ccc2c(c1)C(=O)C(CC=O)C2 (racemic) | 85 to 87 °C |
| C#CCOc1cc(CO)cc(OCC#C)c1 | 79 to 80 °C |
| O=C1Nc2cc(F)ccc2OC1CCO (centres undefined) | 126 to 130 °C |
| OCc1c(Cl)c(Cl)c(Cl)c(CO)c1Cl | 228 to 230 °C |
| CC1(C)C2CC[C@@]1(N1CCOCC1)[C@H](O)C2 | 35 to 36 °C |
| COc1ccc(Nc2nc(NC3CCCCCC3)nc(N3CCCC3)n2)cc1F | 79 °C |
| Cc1cc(C(C)(C)C)cc(C)c1C(=O)O | 160 to 164 °C |

| SMILES | melting point |
| --- | --- |
| CSC(=S)N1CCN(CC2=C(C)C(=O)C(C)=C(C)C2=O)CC1 | 133 to 135 °C |
| Cn1c2c(c3ccccc31)C(=O)C(=Cc1c[nH]cn1)CC2 | 225 to 232 °C |
| O=c1cc(-c2cccc(Br)c2)sc(N2CCOCC2)c1 | 181 to 182 °C |
| N#CC[C@H]1CCn2c(cc3ccccc32)C1 | 100 to 101 °C |
| COC(=O)CC1CCc2cc(OC)ncc2C1O (centres undefined) | 92 to 96 °C |
| CCC(=O)Nc1c([N+](=O)[O-])cnn1-c1nc(Cl)c(C(F)(F)F)cc1Cl | 148 to 154 °C |
| CCOC(=O)c1c(O)nsc1C | 69 °C |
| CCOC(=O)c1cn(C)nc1Nc1ccc(F)cc1[N+](=O)[O-] | 162 °C |
| CC(C)NC(=O)N1CCc2[nH]cnc2C1c1cccnc1 (centres undefined) | 237 °C |
| CN(C)S(=O)(=O)CCCOc1ccc2ncnn2n1 | 151 to 153 °C |
| COc1nc2cc(F)ccc2nc1Cl | 93 to 95 °C |
| Cc1nc2sc(Cl)cn2c(=O)c1O | 214 to 217 °C |
| Cc1cc(C)c(C(C(N)=O)C(N)=O)c(C)c1 | 177 to 179 °C |
| CC1=CC(O)C(OC(=O)C=Cc2ccccc2)C(C)(C)CC1=O (centres undefined) | 85.5 to 87 °C |
| N#Cc1cc(Br)c(NC(=O)NC(=O)c2c(F)cccc2F)cc1Cl | 247 °C |
| c1ccc2c(c1)CN(Cc1nc3ccccc3[nH]1)C2 | 172 to 174 °C |
| CCOC(=O)C1(C(=O)OCC)C(C(C)=O)C(=O)N1Cc1ccc(OC)cc1OC (centres undefined) | 84 to 85 °C |
| CC(=CC(=O)N1CCCC1C(=O)O)C(=O)c1ccc(Br)cc1 (centres undefined) | 137 to 144 °C |
| C=CS(=O)(=O)NCc1ccc(OC)cc1 | 68 to 69 °C |

The next lines start with the values.

| melting point | SMILES |
| --- | --- |
| 115 to 120 °C | COCCN1CCc2cc(OC)c(O)cc2C1C1(c2ccccc2Cl)CC1 (centres undefined) |
| 160 to 163 °C | CC(C)Cn1cc(-c2ccc3nnn(Cc4ccc5ncccc5c4)c3n2)cn1 |
| 214 °C | Cc1ccc(N2C(=O)c3ccccc3C2=O)nn1 |
| 107 °C | COc1ccc(C[C@H](NC(=O)OCc2ccccc2)C(=O)CCl)cc1 |
| > 300 °C | O=S(=O)(O)c1ccc(Nc2ncnc3cc(Cl)ccc23)cc1 |
| 224 to 225 °C | O=C(NNC(=O)c1ccccn1)c1ccccn1 |
| 211 to 212 °C | Cc1nccn1-c1nc(-c2ccc(Cl)cc2)c(CCCC(=O)O)o1 |
| 210 to 211 °C | COc1ccc(CNc2ncnc3c2ncn3C2OC(c3nnn[nH]3)C(O)C2O)cc1 (centres undefined) |
| 62 to 64 °C | CCCC[C@H](NC(=O)[C@H](CC(C)C)NC(=O)OCc1ccccc1)C(=O)CCCc1ccco1 |
| 71 to 74 °C | O=S(Cc1[nH]c2ccccc2c1Sc1ccccc1)c1ccccc1 (centres undefined) |
| 245 to 251 °C | CN(C)c1ccc(-c2nc3c(N[C@H]4[C@@H](C(N)=O)[C@@H]5C=C[C@H]4C5)ccnc3[nH]2)cc1 |
| 64 to 65 °C | COc1ccc(C(=O)CSCc2ccncc2)cc1 |
| 149 to 150 °C | N#Cc1cc(-c2ccccc2)cnc1Cl |
| 229 to 248 °C | O=C(O)c1ccc2c(c1)S(=O)(=O)c1ccccc1C2 |
| 115 to 116 °C | CC(=O)N1CCCCc2ccc(C(=O)CCC3CCN(Cc4ccccc4)CC3)cc21 |
| 229 °C | Cc1cn(-c2nc(C3=Nc4ccc(-c5ccccc5F)cc4NC(=O)C3)cs2)cn1 |
| 235 to 236 °C | COc1cc(C)nc(NC(=O)NS(=O)(=O)c2ccccc2C2=CCCC2)n1 |
| 235 to 238 °C | COCCN1C(=O)CCC(C)(C)c2ccc(Nc3ncc(Cl)c(Nc4c(F)cccc4OCC#N)n3)cc21 |

| melting point | SMILES |
| --- | --- |
| 71.8 to 73 °C | C=C(c1ccc(Br)cc1)c1ccc(OCCCC)cc1 |
| 202 to 203 °C | COC(=O)C(=Cc1c[nH]c2cc(Cl)ccc12)NC(C)=O |
| 195 °C | O=C1Cc2cc(NC(=O)C(=O)N3CCC(Cc4ccc(Cl)cc4)CC3)ccc2N1 |
| 159 °C | CN(C)C(=O)COc1ccc2c(-c3ccc(Br)cc3)nsc2c1 |
| 107 to 112 °C | CCOC(=O)C1=C(COCC2(C)CO2)NC(C)=C(C(=O)OC)C1c1cccc(Cl)c1Cl (centres undefined) |
| 144 °C | Clc1ncnc(Cl)c1-c1ccc(-c2ccccc2)cc1 |
| 245 °C | COc1ccc(-c2c(C(=O)O)c(=O)n(Cc3ccccc3OC)c3c2oc2cc(N)ccc23)cc1 |
| 173 to 175 °C | CC(C)CC(NC(=O)Cc1ccc(NC(=O)Nc2ccccc2Cl)cc1)c1ncc(CCC(=O)O)s1 (centres undefined) |
| 175 to 177 °C | O=C(NCCCn1ccnc1)c1ccccc1NS(=O)(=O)c1ccc(Cl)cc1 |
| 180 to 182 °C | CC1(C)C=NC(CC(=O)O)(NC(c2ccccc2)(c2ccccc2)c2ccccc2)S1 (centres undefined) |
| 206 °C | CN(C(=O)CN(C(=O)CNC(=O)Nc1cccc(Cc2nnn[nH]2)c1)c1ccccc1)c1ccccc1 |
| 120 to 123 °C | CCOC(=O)COc1ccc(Cn2c(-c3ccc(OCc4ccccc4)cc3)c(C)c3cc(OCc4ccccc4)ccc32)cc1OC |
| 50 to 58 °C | O=C(O)c1ccc(CCCOCCCCCCNCC(O)c2ccc(O)c(CO)c2)cc1 (centres undefined) |
| 113 to 115 °C | Nc1ccc(-c2n[nH]c3c2sc2ccccc23)cc1 |
| 118 to 120 °C | NC(CO)(CO)CCc1ccc(C(=O)CCCCCc2ccccc2)cc1 |
| 180 °C | O=C1CCC(c2ccccc2)(c2ccccc2)C2CN(C(Cc3ccccc3)=NCc3ccc(F)cc3)CC12 (centres undefined) |
| 233 to 235 °C | Cn1ccnc1Sc1ccc(Nc2c(C#N)cnc3cc(-c4ccc(CN5CCOCC5)nc4)ccc23)cc1Cl |
| 185 to 188 °C | O=C(NCc1ccccc1N1CCNCC1)c1cnc2c(-c3cccc(Cl)c3)cnn2c1 |
